pIC50, pKd: −log10 of the molar value.
How the values were obtained:
[1] = molecular target: human TYK2 (JH2domain-pseudokinase) (Homo sapiens (Human), UniProt P29597); experiment: TYK2 JH2 Domain Binding Assay (KINOMEscan)
In short: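 Displacement of a DNA-tagged TYK2 JH2 fusion (human, aa G556–D888, HEK293 extract, <0.1 nM) from ligand-coated beads over 1 h at RT; binding buffer PBS/0.05% Tween 20/10 mM DTT/0.1% BSA.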

[2] = molecular target: Tyk2 kinase domain (DH1) (Homo sapiens (Human), UniProt P29597); experiment: Tyk2 Radioactive Kinase Assay; type: biochemical; conditions: for inhibition at 10 µM: read-out: Tyk2 JH1% Inhibition @ 10 μM
Sequence of Tyk2 kinase domain (DH1) (P29597 897-1176): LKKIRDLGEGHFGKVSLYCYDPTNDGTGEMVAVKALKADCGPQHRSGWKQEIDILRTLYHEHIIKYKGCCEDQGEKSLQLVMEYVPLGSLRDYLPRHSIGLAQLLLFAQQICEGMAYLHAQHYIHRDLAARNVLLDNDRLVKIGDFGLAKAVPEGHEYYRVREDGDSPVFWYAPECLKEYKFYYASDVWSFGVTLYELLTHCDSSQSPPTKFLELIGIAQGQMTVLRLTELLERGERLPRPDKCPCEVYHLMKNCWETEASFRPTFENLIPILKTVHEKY
In short: (§1)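 Each kinase domain is incubated with test compound at 10 μM. Activity is then measured radiometrically and expressed as percent inhibition relative to uninhibited enzyme.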

[3] = molecular target: JAK2 kinase domain (JH1) (Homo sapiens (Human), UniProt O60674); experiment: JAK2 Radioactive Kinase Assay; type: biochemical; conditions: for inhibition at 10 µM: read-out: JAK2 JH1% Inhibition @ 10 μM
Sequence of JAK2 kinase domain (JH1) (O60674 849-1124): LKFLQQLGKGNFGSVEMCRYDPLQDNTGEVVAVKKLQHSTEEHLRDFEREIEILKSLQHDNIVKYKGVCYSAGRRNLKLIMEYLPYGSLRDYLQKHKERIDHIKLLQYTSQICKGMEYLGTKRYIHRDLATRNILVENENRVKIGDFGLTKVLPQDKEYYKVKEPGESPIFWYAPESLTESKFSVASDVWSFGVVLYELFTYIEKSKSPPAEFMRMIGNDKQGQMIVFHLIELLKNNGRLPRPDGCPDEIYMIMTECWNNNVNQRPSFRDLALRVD
In short: as §1

[4] = molecular target: Tyk2/JAK2 (heterodimeric complex) (Homo sapiens (Human), UniProt P29597); experiment: IL-12 Induced pSTAT4 in Human PBMC; type: cell-based; conditions: 1.7 ng/mL IL-12
Sequence of Tyk2/JAK2 (heterodimeric complex) (P29597 whole entry, other chains not shown): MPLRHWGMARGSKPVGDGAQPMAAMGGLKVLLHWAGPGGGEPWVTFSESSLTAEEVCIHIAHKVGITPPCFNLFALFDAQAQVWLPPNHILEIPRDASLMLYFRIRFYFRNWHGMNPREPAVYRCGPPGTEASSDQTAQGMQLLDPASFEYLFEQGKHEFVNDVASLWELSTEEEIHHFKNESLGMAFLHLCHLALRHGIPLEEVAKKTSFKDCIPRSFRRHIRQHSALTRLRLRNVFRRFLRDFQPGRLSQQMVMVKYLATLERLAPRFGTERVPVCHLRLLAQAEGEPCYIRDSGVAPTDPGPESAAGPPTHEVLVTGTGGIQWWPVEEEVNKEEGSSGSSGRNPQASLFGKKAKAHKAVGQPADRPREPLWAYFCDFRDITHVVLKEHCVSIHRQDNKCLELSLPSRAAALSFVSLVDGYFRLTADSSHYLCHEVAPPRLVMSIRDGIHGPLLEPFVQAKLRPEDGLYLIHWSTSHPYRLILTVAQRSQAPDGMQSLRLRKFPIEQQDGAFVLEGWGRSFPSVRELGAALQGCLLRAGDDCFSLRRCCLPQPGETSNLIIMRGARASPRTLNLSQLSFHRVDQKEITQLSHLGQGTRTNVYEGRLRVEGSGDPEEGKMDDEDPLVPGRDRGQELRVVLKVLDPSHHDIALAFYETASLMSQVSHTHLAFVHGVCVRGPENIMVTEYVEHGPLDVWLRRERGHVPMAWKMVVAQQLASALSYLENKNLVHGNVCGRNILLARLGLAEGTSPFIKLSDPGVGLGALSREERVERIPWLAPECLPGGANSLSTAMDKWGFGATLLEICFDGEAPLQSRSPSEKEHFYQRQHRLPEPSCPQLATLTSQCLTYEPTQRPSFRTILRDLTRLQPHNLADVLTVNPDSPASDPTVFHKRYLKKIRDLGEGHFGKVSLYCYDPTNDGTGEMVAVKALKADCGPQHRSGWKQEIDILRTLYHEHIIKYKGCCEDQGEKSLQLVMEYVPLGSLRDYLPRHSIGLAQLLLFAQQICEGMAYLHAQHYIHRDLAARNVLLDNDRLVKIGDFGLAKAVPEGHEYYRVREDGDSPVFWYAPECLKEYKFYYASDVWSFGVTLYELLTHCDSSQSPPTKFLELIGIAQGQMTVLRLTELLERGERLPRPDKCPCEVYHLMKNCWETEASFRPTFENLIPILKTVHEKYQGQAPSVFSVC
Text: The IL-12 Induced pSTAT4 assay evaluates the inhibition of IL-12 induced STAT4 phophorylation mediated by Tyk2/JAK2 (heterodimeric complex).

[5] = molecular target: JAK2/JAK2 homdimeric complex (Homo sapiens (Human), UniProt O60674); experiment: GM-CSF Induced pSTAT5 in Human PBMC; type: cell-based; conditions: GM-CSF 5 ng/mL for 20 minutes, pSTAT5 by MSD, read-out: PBMC_GMCSF_pSTAT5 IC50
Sequence of JAK2/JAK2 homdimeric complex (O60674 whole entry): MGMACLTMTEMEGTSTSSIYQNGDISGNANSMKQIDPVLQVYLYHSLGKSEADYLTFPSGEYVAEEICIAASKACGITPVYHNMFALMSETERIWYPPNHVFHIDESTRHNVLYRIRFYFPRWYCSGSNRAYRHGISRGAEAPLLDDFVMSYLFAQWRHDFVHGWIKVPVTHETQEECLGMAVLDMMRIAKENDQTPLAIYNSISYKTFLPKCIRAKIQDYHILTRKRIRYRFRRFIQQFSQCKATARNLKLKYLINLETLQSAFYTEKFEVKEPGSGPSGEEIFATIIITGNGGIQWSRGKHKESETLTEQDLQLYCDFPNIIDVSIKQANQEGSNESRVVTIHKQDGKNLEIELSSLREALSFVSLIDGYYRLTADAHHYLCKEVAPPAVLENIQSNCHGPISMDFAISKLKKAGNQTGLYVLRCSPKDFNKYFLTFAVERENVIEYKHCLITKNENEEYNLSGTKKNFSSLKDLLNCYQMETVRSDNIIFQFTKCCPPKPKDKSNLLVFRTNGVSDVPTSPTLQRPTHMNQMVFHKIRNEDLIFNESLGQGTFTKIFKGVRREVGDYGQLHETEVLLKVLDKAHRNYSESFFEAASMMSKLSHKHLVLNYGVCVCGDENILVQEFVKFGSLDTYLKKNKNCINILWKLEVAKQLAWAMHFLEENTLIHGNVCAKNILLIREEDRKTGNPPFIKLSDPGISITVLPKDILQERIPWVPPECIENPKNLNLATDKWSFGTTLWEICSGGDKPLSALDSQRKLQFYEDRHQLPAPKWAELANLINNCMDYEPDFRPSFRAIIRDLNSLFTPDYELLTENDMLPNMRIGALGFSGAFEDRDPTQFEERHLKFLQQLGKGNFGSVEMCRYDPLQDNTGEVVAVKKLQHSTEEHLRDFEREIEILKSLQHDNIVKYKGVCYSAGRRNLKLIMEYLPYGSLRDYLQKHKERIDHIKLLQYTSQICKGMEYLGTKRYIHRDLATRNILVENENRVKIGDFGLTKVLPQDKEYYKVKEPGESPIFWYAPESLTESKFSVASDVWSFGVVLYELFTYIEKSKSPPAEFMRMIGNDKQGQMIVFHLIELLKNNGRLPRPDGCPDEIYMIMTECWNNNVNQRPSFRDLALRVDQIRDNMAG
Sequence of JAK2/JAK2 homdimeric complex (P32927 17-897 partner): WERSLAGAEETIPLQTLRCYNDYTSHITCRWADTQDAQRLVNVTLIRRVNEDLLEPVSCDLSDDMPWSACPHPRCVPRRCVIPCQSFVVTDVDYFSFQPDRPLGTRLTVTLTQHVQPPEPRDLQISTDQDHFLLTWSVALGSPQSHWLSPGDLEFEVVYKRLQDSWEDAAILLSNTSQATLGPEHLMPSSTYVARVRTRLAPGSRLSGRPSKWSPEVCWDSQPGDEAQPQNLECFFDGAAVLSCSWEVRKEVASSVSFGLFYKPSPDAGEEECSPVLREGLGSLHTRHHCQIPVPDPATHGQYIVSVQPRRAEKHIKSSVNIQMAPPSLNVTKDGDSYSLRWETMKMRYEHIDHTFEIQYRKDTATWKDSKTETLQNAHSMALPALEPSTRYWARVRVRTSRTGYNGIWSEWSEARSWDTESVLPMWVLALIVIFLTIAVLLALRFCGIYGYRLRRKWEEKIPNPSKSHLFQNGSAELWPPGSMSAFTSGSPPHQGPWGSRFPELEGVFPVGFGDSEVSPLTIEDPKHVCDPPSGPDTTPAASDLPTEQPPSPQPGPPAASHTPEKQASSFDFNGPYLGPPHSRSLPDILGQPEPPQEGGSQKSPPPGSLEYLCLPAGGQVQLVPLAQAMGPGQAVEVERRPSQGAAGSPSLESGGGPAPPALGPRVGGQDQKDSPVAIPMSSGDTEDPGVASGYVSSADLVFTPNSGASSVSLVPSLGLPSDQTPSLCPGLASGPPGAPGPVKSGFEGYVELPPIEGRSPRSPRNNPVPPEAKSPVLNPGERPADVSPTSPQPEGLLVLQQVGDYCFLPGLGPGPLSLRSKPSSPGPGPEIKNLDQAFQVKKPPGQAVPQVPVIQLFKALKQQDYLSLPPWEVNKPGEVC

Sequence of human TYK2 (JH2domain-pseudokinase) (P29597 556-888): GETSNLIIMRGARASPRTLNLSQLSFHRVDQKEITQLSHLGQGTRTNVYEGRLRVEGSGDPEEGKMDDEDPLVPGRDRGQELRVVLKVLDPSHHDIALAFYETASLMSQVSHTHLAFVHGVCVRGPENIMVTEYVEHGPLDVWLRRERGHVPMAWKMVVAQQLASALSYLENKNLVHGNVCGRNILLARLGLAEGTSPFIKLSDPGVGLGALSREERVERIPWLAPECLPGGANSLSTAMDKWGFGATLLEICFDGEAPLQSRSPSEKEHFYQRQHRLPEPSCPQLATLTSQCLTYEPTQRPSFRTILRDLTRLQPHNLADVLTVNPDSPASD

Row | SMILES | pKd [1] | inhibition at 10 µM ([2]; compound at 10 μM, ATP 10 μM) | inhibition at 10 µM ([3]; compound at 10 μM, ATP 10 μM) | pIC50 [4] | pIC50 [5] | Tyk2 JH1% Inhibition @ 10 μM ([2]; compound at 10 μM, ATP 10 μM) | JAK2 JH1% Inhibition @ 10 μM ([3]; compound at 10 μM, ATP 10 μM) | Tyk2 JH1% Inhibition @ 10 μM ([2]; 10 μM compound, 10 μM ATP) | JAK2 JH1% Inhibition @ 10 μM ([3]; 10 μM compound, 10 μM ATP)
1 | CNc1cc(Nc2cccn(C3CCCOC3)c2=O)nc2c(C(=O)NC3CCC3)cnn12 (racemic) [I-324] | > 9.70 | < 50% | < 50% | > 7.00 | < 4.30 |  |  |  | 
2 | CNc1cc(Nc2cccc3ocnc23)nc2c(C(=O)N[C@@H]3CC[C@H]3O)cnn12 (racemic) [I-756, 5-(benzo[d]oxazol-4-ylamino)-N-(2-hydroxycyclobutyl)-7-(methylamino) pyrazolo[1,5-a]pyrimidine-3-carboxamide] | > 9.70 | < 50% | < 50% | 6.30 to 7.00 | < 4.30 |  |  |  | 
3 | CNc1cc(Nc2cccn(-c3ccn(C4CC4)n3)c2=O)nc2c(C(=O)N[C@@H]3C[C@@H]3F)cnn12 (stereo in doubt) [I-106, 5-((1-(1-cyclopropyl-1H-pyrazol-3-yl)-2-oxo-1,2-dihydropyridin-3-yl)amino)-N-((1R,2S)-2-fluorocyclopropyl)-7-(methylamino)pyrazolo[1,5-a]pyrimidine-3-carboxamide] | > 9.70 | < 50% | < 50% | > 7.00 | < 4.90 |  |  |  | 
4 | CNc1cc(Nc2cccn(-c3ccnc(C)n3)c2=O)nc2c(C(=O)N[C@@H]3C[C@@H]3F)cnn12 (stereo in doubt) [I-124, N-((1R,2S)-2-fluorocyclopropyl)-7-(methylamino)-5-((1-(2-methylpyrimidin-4-yl)-2-oxo-1,2-dihydropyridin-3-yl)amino)pyrazolo[1,5-a]pyrimidine-3-carboxamide] | > 9.70 | < 50% | < 50% | > 7.00 | < 4.90 |  |  |  | 
5 | CNc1cc(-c2cn(C(C)C)c3ncccc23)nc2c(C(=O)N[C@@H]3C[C@@H]3F)cnn12 (stereo in doubt) [I-225, N-((1R,2S)-2-fluorocyclopropyl)-5-(1-isopropyl-1H-pyrrolo[2,3-b]pyridin-3-yl)-7-(methylamino)pyrazolo[1,5-a]pyrimidine-3-carboxamide] | > 9.70 | < 50% | < 50% | > 7.00 | < 4.30 |  |  |  | 
6 | CNc1cc(Nc2cccnc2OC)nc2c(C(=O)N[C@@H]3CC[C@H]3O)cnn12 (stereo in doubt) [I-363, N-((1R,2R)-2-hydroxycyclobutyl)-5-((2-methoxypyridin-3-yl)amino)-7-(methylamino)pyrazolo[1,5-a]pyrimidine-3-carboxamide] | > 9.70 | < 50% | 50 to 70% | > 7.00 | < 4.30 |  |  |  | 
7 | CNc1cc(Nc2cccnc2OC2CC2)nc2c(C(=O)N[C@@H]3CC[C@H]3O)cnn12 (stereo in doubt) [I-366, 5-((2-cyclopropoxypyridin-3-yl)amino)-N-((1R,2R)-2-hydroxycyclobutyl)-7-(methylamino)pyrazolo[1,5-a]pyrimidine-3-carboxamide] | > 9.70 | < 50% | < 50% | > 7.00 | < 4.30 |  |  |  | 
8 | [2H]C([2H])([2H])Nc1cc(Nc2cccnc2OC)nc2c(C(=O)N[C@@H]3C[C@@H]3F)cnn12 (stereo in doubt) [I-374, N-((1R,2S)-2-fluorocyclopropyl)-5-((2-methoxypyridin-3-yl)amino)-7-((methyl-d3)amino)pyrazolo[1,5-a]pyrimidine-3-carboxamide] | > 9.70 | < 50% | < 50% | > 7.00 | < 4.30 |  |  |  | 
9 | [2H]C([2H])([2H])Nc1cc(Nc2cccnc2OC2CC2)nc2c(C(=O)N[C@@H]3C[C@@H]3F)cnn12 (stereo in doubt) [I-375, 5-((2-cyclopropoxypyridin-3-yl)amino)-N-((1R,2S)-2-fluorocyclopropyl)-7-((methyl-d3)amino)pyrazolo[1,5-a]pyrimidine-3-carboxamide] | > 9.70 | < 50% | 50 to 70% | > 7.00 | < 4.30 |  |  |  | 
10 | COc1ncccc1Nc1cc(NCCCN2CCOCC2)n2ncc(C(=O)N[C@@H]3C[C@@H]3F)c2n1 (stereo in doubt) [I-377, N-((1R,2S)-2-fluorocyclopropyl)-5-((2-methoxypyridin-3-yl)amino)-7-((3-morpholinopropyl)amino)pyrazolo[1,5-a]pyrimidine-3-carboxamide] | 9.00 to 9.70 | < 50% | < 50% | 6.30 to 7.00 | < 4.30 |  |  |  | 
11 | [2H]C([2H])([2H])Oc1ncccc1Nc1cc(NC)n2ncc(C(=O)N[C@@H]3CC[C@@H]3O)c2n1 (stereo in doubt) [I-391, N-(2-hydroxycyclobutyl)-5-((2-(methoxy-d3)pyridin-3-yl)amino)-7-(methylamino)pyrazolo [1,5-a]pyrimidine-3-carboxamide] | > 9.70 | < 50% | < 50% | > 7.00 | < 4.30 |  |  |  | 
12 | [2H]C([2H])([2H])Oc1ncccc1Nc1cc(NC)n2ncc(C(=O)N[C@H]3CC[C@H]3O)c2n1 (stereo in doubt) [I-399, N-((1 S,2R)-2-hydroxycyclobutyl)-5-((2-(methoxy-d3)pyridin-3-yl)amino)-7-(methylamino) pyrazolo[1,5-a]pyrimidine-3-carboxamide] | > 9.70 |  |  | > 7.00 | < 4.90 | A (percent inhibition at 10 μM lower than 50) | A (percent inhibition at 10 μM lower than 50) |  | 
13 | CNc1cc(Nc2cccn(-c3nc(C)co3)c2=O)nc2c(C(=O)N[C@@H]3CC[C@H]3O)cnn12 (stereo in doubt) [I-658, N-((1R,2R)-2-hydroxycyclobutyl)-7-(methylamino)-5-((1-(4-methyloxazol-2-yl)-2-oxo-1,2-dihydropyridin-3-yl)amino)pyrazolo[1,5-a]pyrimidine-3-carboxamide] | > 9.70 | < 50% | < 50% | > 7.00 | < 4.30 |  |  |  | 
14 | CNc1cc(Nc2cccn(-c3ncc(C)s3)c2=O)nc2c(C(=O)N[C@H]3CC[C@@H]3O)cnn12 (stereo in doubt) [I-676, N-(2-hydroxycyclobutyl)-7-(methylamino)-5-((1-(5-methylthiazol-2-yl)-2-oxo-1,2-dihydropyridin-3-yl)amino)pyrazolo[1,5-a]pyrimidine-3-carboxamide] | > 9.70 | < 50% | < 50% | > 7.00 | < 5.60 |  |  |  | 
15 | CNc1cc(Nc2cc(C)cc(C)c2)nc2c(C(N)=O)cnn12 [I-2, 5-((3,5-dimethylphenyl)amino)-7-(methylamino)pyrazolo[1,5-a]pyrimidine-3-carboxamide] | > 9.70 | < 50% | < 50% | > 7.00 | < 4.30 |  |  |  | 
16 | CNc1cc(Nc2cc(F)ccc2F)nc2c(C(=O)NC3CC3)cnn12 [I-3] | > 9.70 | < 50% | < 50% | > 7.00 | < 4.90 |  |  |  | 
17 | CNc1cc(Nc2cccnc2OC)nc2c(C(=O)NC3CCC3)cnn12 [I-4] | > 9.70 | < 50% | < 50% | > 7.00 | < 4.90 |  |  |  | 
18 | CNc1cc(Nc2cc(F)cc(F)c2F)nc2c(C(=O)NC3CC3)cnn12 [I-5] | > 9.70 | < 50% | < 50% | > 7.00 | < 4.30 |  |  |  | 
19 | CNc1cc(Nc2cc(C)cc(F)c2)nc2c(C(=O)NC3CC3)cnn12 [I-6] | > 9.70 | < 50% | < 50% | > 7.00 | < 4.30 |  |  |  | 
20 | CNc1cc(Nc2cccc(N3CCCC3=O)n2)nc2c(C(=O)NC3CC3)cnn12 [I-7] | > 9.70 | < 50% | < 50% | > 7.00 | < 4.90 |  |  |  | 
21 | CNc1cc(Nc2cccc(-c3nccs3)c2Cl)nc2c(C(N)=O)cnn12 [I-16] | 9.00 to 9.70 | > 90% | 70 to 90% | > 7.00 | < 5.60 |  |  |  | 
22 | CNc1cc(Nc2cccc(-c3cnn(C)c3)c2Cl)nc2c(C(N)=O)cnn12 [I-17] | > 9.70 | 70 to 90% | < 50% | > 7.00 | < 5.60 |  |  |  | 
23 | CNc1cc(-c2cn(C3CC3)c3ncccc23)nc2c(C(=O)N[C@H]3CC[C@H]3O)cnn12 [I-992, 5-(1-cyclopropyl-1H-pyrrolo[2,3-b]pyridin-3-yl)-N-((1S,2R)-2-hydroxycyclobutyl)-7-(methylamino)pyrazolo[1,5-a]pyrimidine-3-carboxamide] |  |  |  | > 7.00 | < 4.30 |  |  | A (percent inhibition at 10 μM lower than 50) | A (percent inhibition at 10 μM lower than 50)
24 | CNc1cc(Nc2cccn([C@@H]3CCC[C@H](OC)C3)c2=O)nc2c(C(=O)N[C@@H]3CC[C@H]3OC)cnn12 [I-995] |  |  |  | > 7.00 | < 4.30 |  |  | A (percent inhibition at 10 μM lower than 50) | A (percent inhibition at 10 μM lower than 50)
